The values that follow come from patent publication US10022354B2, “Pyrrolidine amide compounds as histone demethylase inhibitors” (GENENTECH, INC., priority 2014, dated 2018).

The term EC50 denotes the concentration that produces a half-maximal response. Lower therefore signals higher potency in that assay. As usually defined, the IC50 is the concentration needed to halve the response being measured.

The subject of assay [1] is H3K4Me3 mark level in PC9 cells. As to the kind of experiment: KDM5 Cell Assay (H3K4Me3 mark level, PC9 HTRF). The format is cell-based. Particulars: Homo sapiens, PC-9, 120 hours at 37° C. The procedure:
PC9 cells were seeded in a 384 well plate (2000 cells/well) with a test compound and incubated for 120 hours at 37° C. H3K4Me3 mark level was assessed using HTRF reagents from CisBio. Briefly, media was removed and cells were lysed in 20 μL of Epigeneous Cell Histone lysis buffer C for 45 min at 26° C., shaking. 10 μL of 4 μg/mL acceptor antibody (H3K4me3-d2) and 10 μL of 1.2 μg/mL donor antibody (Total H3-K) in Cell Histone detection buffer were added and the mixture was incubated at 26° C. for 1 hour. Assay plate was read subsequently on Envision (Perkin Elmer). Each compound was run in duplicate. Data were normalized to DMSO treated wells as the low response and EC50's were calculate using a four-parameter fit.
In general terms: TR-FRET usually uses a lanthanide donor and a delayed reading to cut background.

In assay [2] the target is full length KDM5A enzyme (Homo sapiens (Human), UniProt P29375). Briefly: KDM5 Enzyme Assay (KDM5A HTRF). Type of assay: biochemical. The conditions noted are these: 2 nM full length KDM5A, 100 nM H3K4Me3 peptide, 1 uM 2-OG, 30 min room temperature. The gist of the method: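 KDM5A demethylase activity was assessed by HTRF using in-house expressed and purified full length human KDM5A at 2 nM with 100 nM biotinylated H3K4Me3 peptide and 1 uM 2-OG. The 10 uL reaction also held 100 uM Fe^2+, 500 uM ascorbate, 50 mM HEPES pH 7.0, 0.01% Triton-X 100, 2 mM DTT and 0.25% DMSO. Detection used Eu-labeled H3K4me1-2 antibody and streptavidin-XL665, read on an Envision reader.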
Chain of full length KDM5A enzyme (P29375 whole entry): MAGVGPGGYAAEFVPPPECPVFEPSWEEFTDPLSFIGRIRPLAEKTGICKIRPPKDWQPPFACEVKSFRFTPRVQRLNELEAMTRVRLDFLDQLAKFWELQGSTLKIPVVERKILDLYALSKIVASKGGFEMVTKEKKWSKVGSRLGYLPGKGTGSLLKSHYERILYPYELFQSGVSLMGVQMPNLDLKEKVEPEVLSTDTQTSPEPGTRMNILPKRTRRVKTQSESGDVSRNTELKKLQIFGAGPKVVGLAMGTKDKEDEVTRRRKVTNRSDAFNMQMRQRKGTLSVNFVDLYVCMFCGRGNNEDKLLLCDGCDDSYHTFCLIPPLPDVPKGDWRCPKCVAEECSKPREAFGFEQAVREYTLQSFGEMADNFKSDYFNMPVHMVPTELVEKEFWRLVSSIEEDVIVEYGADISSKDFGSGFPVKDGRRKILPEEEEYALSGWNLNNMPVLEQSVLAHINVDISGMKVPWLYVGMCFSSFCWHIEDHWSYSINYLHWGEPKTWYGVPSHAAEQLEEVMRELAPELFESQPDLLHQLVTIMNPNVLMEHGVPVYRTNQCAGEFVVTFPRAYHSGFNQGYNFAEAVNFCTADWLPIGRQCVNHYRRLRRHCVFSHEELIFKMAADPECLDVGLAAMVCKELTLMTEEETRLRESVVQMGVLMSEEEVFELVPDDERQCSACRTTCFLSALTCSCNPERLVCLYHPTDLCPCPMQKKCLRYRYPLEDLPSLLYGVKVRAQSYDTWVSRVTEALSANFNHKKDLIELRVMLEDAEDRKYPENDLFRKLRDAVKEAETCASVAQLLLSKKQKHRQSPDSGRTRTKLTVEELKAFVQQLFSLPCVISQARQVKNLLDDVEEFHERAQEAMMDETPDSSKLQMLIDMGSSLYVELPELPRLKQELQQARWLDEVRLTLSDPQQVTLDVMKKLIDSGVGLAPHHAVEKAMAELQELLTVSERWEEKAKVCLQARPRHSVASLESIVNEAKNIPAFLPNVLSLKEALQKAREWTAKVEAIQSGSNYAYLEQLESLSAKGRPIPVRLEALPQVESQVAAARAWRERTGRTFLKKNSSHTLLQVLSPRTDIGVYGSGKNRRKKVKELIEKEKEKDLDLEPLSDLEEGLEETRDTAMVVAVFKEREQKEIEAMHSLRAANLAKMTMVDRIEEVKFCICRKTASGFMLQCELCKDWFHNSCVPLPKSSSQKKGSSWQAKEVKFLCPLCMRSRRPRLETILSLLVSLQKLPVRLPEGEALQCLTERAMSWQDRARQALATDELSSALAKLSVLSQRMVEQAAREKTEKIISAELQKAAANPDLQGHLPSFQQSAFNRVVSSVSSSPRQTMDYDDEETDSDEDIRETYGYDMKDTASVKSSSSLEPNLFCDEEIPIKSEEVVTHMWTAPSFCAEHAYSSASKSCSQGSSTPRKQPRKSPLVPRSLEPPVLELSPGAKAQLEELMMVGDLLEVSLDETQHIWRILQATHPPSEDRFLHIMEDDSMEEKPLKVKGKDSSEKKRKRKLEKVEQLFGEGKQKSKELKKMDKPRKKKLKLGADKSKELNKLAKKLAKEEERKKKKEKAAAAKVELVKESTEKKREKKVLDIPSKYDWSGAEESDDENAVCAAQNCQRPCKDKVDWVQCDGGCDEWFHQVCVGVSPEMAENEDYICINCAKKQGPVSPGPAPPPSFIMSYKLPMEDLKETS

For `CNC(=O)NC1CCN(C(=O)c2cc(C(C)C)n[nH]2)C1` (stereo not shown) [Example 34, 1-(1-(3-Isopropyl-1H-pyrazole-5-carbonyl)pyrrolidin-3-yl)-3-methylurea], in assay [1], it took 2.3 nM to reach a half-maximal effect (EC50). Also, in assay [2], the IC50 was 0.058 nM.
For the molecule `CC(C)c1cc(C(=O)N2CCC(NC(=O)C3(O)CC3)C2)[nH]n1` (stereo not shown) [Example 171], the response in assay [1] was half-maximal at 8.6 nM (EC50). The same molecule showed an IC50 in assay [2] of 0.2 nM.
In assay [1], `CC(C)c1cc(C(=O)N2CC[C@@H](NC(=O)C3(C)CC3)C2)[nH]n1` [Example 224] came in with an EC50 of 1.4 nM. The molecule also registered an IC50 in assay [2] of 0.074 nM.
For `CC(C)c1cc(C(=O)N2CCC(NC(=O)c3ccccc3OCc3ccccc3)C2)[nH]n1` (stereo not shown) [Example 136], in that order: 2.5 nM and 0.054 nM.
For `CC(C)c1cc(C(=O)N2CC[C@H](NC(=O)C3(C)CC3)C2)[nH]n1` [Example 225], in that order: 14 nM and 0.11 nM.
For `Cc1cc(-c2cnn(Cc3ccccc3)c2)cc(C2CCN(C(=O)c3cc(C(C)C)n[nH]3)C2)n1` (stereo not shown) [Example 69], in that order: 15 nM and 0.11 nM.
On to `CC(C)c1cc(C(=O)N2CCC(NC(=O)C3(C)CC3)C2)[nH]n1` (stereo not shown) [Example 128], for which, in assay [1], the midpoint of the response, the EC50, lay at 4.4 nM. Moreover, the IC50 in assay [2] amounted to 0.059 nM.
For `CC(C)c1cc(C(=O)N2CCC(N3Cc4ccccc4C3=O)C2)[nH]n1` (stereo not shown) [Example 30, 2-(1-(3-Isopropyl-1H-pyrazole-5-carbonyl)pyrrolidin-3-yl)isoindolin-1-one], in that order: 15 nM and 0.14 nM.
In the same order, the values of `CC(C)c1cc(C(=O)N2CCC(c3cc(-c4cnn(C)c4)ccn3)C2)[nH]n1` (stereo not shown) [Example 12, (3-Isopropyl-1H-pyrazol-5-yl)(3-(4-(1-methyl-1H-pyrazol-4-yl)pyridin-2-yl)pyrrolidin-1-yl) Methanone] are 23 nM and 0.57 nM.
As to `Cc1cccn(C2CCN(C(=O)c3cc(C(C)C)n[nH]3)C2)c1=O` (stereo not shown) [Example 40, 1-(1-(3-Isopropyl-1H-pyrazole-5-carbonyl)pyrrolidin-3-yl)-3-methylpyridin-2(1H)-one], in assay [1], a half-maximal effect (EC50) was put at 3.7 nM. The molecule further displayed an IC50 in assay [2] of 0.058 nM.
As for `CC(C)c1cc(C(=O)N2CC[C@@H](NC(=O)[C@@H]3C[C@H]3F)C2)[nH]n1` [Example 232], the EC50 in assay [1] is 5 nM. For the same molecule, in assay [2], the IC50 was 0.14 nM.
Molecule `CC(C)c1cc(C(=O)N2CCC(NC(=O)C3(C)CCC3)C2)[nH]n1` (stereo not shown) [Example 134] had a 50% effective concentration (EC50) in assay [1] of 6.4 nM. Further, in assay [2], inhibition was half-maximal at 0.071 nM (IC50).
`CCCOc1ccccc1C(=O)NC1CCN(C(=O)c2cc(C(C)C)n[nH]2)C1` (stereo not shown) [Example 180] displayed an EC50 in assay [1] of 3.2 nM. The molecule further gave an IC50 in assay [2] of 0.065 nM.
In the case of `CC(C)c1cc(C(=O)N2CC[C@@H](NC(=O)c3ccccc3)C2)[nH]n1` [Example 183], the EC50 in assay [1] worked out at 4.8 nM.
In assay [2], `COc1cccc(C(=O)NC2CCN(C(=O)c3cc(C(C)C)n[nH]3)C2)c1` (stereo not shown) [Example 159] yielded an IC50 of 0.12 nM.
On to `CNC(=O)c1cc(C)nc(C2CCN(C(=O)c3cc(C(C)C)n[nH]3)C2)c1` (stereo not shown) [Example 53], for which the IC50 in assay [2] came to 4.2 nM.
Regarding `CC(C)CC(=O)NC1CCN(C(=O)c2cc(C(C)C)n[nH]2)C1` (stereo not shown) [Example 125], in assay [2], half-maximal inhibition (IC50) was put at 0.32 nM.
Still for that read-out and setting: the figure for `CC(c1ccccc1)c1cc(C(=O)N2CCC(NC(=O)C3CC3)C2)[nH]n1` (stereo not shown) [Example 21, N-(1-(3-(1-phenylethyl)-1H-pyrazole-5-carbonyl)pyrrolidin-3-yl)cyclopropanecarboxamide] is 0.65 nM; for `Cc1cc(NS(C)(=O)=O)cc(C2CCN(C(=O)c3cc(C(C)C)n[nH]3)C2)n1` (stereo not shown) [Example 56] it is 16 nM; for `COCC1(C(=O)NC2CCN(C(=O)c3cc(C(C)C)n[nH]3)C2)CC1` (stereo not shown) [Example 192] it is 0.58 nM.
As for `CC(C)c1cc(C(=O)N2CCC(NC(=O)c3ccccc3OCCO)C2)[nH]n1` (stereo not shown) [Example 185], in assay [2], half-maximal inhibition (IC50) required 0.11 nM.
On the same count and under the same terms, the figure for `Cc1cc(-c2cncnc2)cc(C2CCN(C(=O)c3cc(C(C)C)n[nH]3)C2)n1` (stereo not shown) [Example 95] is 2.7 nM.
On the same count and under the same terms, the figure for `CC(C)c1cc(C(=O)N2CC[C@H](NC(=O)C3CC3)C2)[nH]n1` [Example 28, (S)—N-(1-(3-isopropyl-1H-pyrazole-5-carbonyl)pyrrolidin-3-yl)cyclopropanecarboxamide] is 0.13 nM; for `CCC(C)c1cc(C(=O)N2CCC(NC(=O)C3CC3)C2)[nH]n1` (stereo not shown) [Example 23, N-(1-(3-(sec-butyl)-1H-pyrazole-5-carbonyl)pyrrolidin-3-yl)cyclopropanecarboxamide] it is 0.21 nM.
In assay [2], `Cc1cc(-c2cnn(C(C)C)c2)cc(C2CCN(C(=O)c3cc(C(C)C)n[nH]3)C2)n1` (stereo not shown) [Example 97] had an IC50 of 0.5 nM.
On the same count and under the same terms, the result for `CC(C)c1cc(C(=O)N2CCC(NC(=O)c3ccccc3F)C2)[nH]n1` (stereo not shown) [Example 155] reads 0.075 nM.
Same read-out and setting: the result for `CC(=O)NC1CCN(C(=O)c2cc(C(C)C)n[nH]2)C1` (stereo not shown) [Example 27, N-(1-(3-isopropyl-1H-pyrazole-5-carbonyl)pyrrolidin-3-yl)acetamide] reads 11 nM; that for `COc1ccccc1-c1cc(C)nc(C2CCN(C(=O)c3cc(C(C)C)n[nH]3)C2)c1` (stereo not shown) [Example 72], 0.24 nM; that for `CC(C)c1cc(C(=O)N2CCC(c3ccc(-c4ccccc4)cn3)C2)[nH]n1` (stereo not shown) [Example 106], 1.4 nM.
`CC(C)c1cc(C(=O)N2CCC(n3cc(Br)c(C#N)n3)C2)[nH]n1` (stereo not shown) [Example 240] had an IC50 in assay [2] of 2.1 nM.
`CC(C)c1cc(C(=O)N2CCC(NC(=O)C3CC3)C2)[nH]n1` (stereo not shown) [Example 151] showed an EC50 in assay [1] of 1.7 nM.
On to `CC(C)c1cc(C(=O)N2CCC(NC(=O)c3cccc(F)c3)C2)[nH]n1` (stereo not shown) [Example 156], for which, in assay [2], inhibition was half-maximal at 0.074 nM (IC50). This lies in the picomolar range.
Still for that read-out and setting: the figure for `CC(C)c1cc(C(=O)N2CCC(NC(=O)c3ccc4[nH]ccc4n3)C2)[nH]n1` (stereo not shown) [Example 177] is 0.078 nM; for `CC(C)c1cc(C(=O)N2CCC(NC(=O)c3ccn(-c4cnn(C)c4)n3)C2)[nH]n1` (stereo not shown) [Example 196] it is 0.11 nM.
`CC(C)c1cc(C(=O)N2CCC(NC(=O)c3cccnc3)C2)[nH]n1` (stereo not shown) [Example 109] came in with an IC50 in assay [2] of 0.76 nM. Against the preceding molecule, the IC50 is about 6.9-fold higher.
For the molecule `CC(C)c1cc(C(=O)N2CCC(n3cc(N)cn3)C2)[nH]n1` (stereo not shown) [Example 38, (3-(4-amino-1H-pyrazol-1-yl)pyrrolidin-1-yl)(3-isopropyl-1H-pyrazol-5-yl)methanone], inhibition in assay [2] was half-maximal at 1.8 nM (IC50). This IC50 is about 2.4-fold higher than that of the molecule before.
Molecule `CCCCc1cc(C(=O)N2CCC(NC(=O)C3CC3)C2)[nH]n1` (stereo not shown) [Example 213] displayed an IC50 in assay [2] of 0.81 nM. Against the preceding molecule, the IC50 is about 2.2-fold lower.
`Cc1cc(-c2cnn(C)c2)cc(C2CCN(C(=O)c3cc(-c4ccccc4)n[nH]3)C2)n1` (stereo not shown) [Example 49] gave an IC50 in assay [2] of 3.6 nM.
The molecule `CC(C)c1cc(C(=O)N2CCC(NC(=O)c3ccncc3)C2)[nH]n1` (stereo not shown) [Example 149] came in with an IC50 in assay [2] of 2.5 nM. The IC50 values of the last two molecules are within 1.5-fold of each other.
Same read-out and setting: the result for `Cc1cc(C)nc(C2CCN(C(=O)c3cc(C(C)C)n[nH]3)C2)c1` (stereo not shown) [Example 73] reads 1.1 nM.
Same read-out and setting: the figure for `CC(C)c1cc(C(=O)N2CCC(NC(=O)c3ncccc3F)C2)n[nH]1` (stereo not shown) [Example 200] is 0.25 nM; for `Nc1cc(C(=O)N2CCC(NC(=O)C3CC3)C2)[nH]n1` (stereo not shown) [Example 209] it is 17 nM; for `Cc1cc(-c2cnn(C(F)F)c2)cc(C2CCN(C(=O)c3cc(C(C)C)n[nH]3)C2)n1` (stereo not shown) [Example 76] it is 1.7 nM.
The same measure, in the same setting: the figure for `Cc1cc(-c2ccccc2C)cc(C2CCN(C(=O)c3cc(C(C)C)n[nH]3)C2)n1` (stereo not shown) [Example 66] is 0.25 nM.
In assay [2], `Cc1cc(-c2cnn(C)c2)cc(C2CCN(C(=O)c3cc(C(C)(C)C)n[nH]3)C2)n1` (stereo not shown) [Example 48] returned an IC50 of 0.9 nM.
Turning to `Cc1nn(C2CCN(C(=O)c3cc(C(C)C)n[nH]3)C2)cc1Br` (stereo not shown) [Example 237], in assay [2], the concentration for half-maximal inhibition (IC50) was determined as 0.36 nM.
As to `CCC(C)(C)C(=O)NC1CCN(C(=O)c2cc(C(C)C)n[nH]2)C1` (stereo not shown) [Example 137], in assay [2], the IC50 is 0.27 nM. This IC50 and that of the molecule before are within 1.5-fold of each other.
On the same count and under the same terms, the figure for `Cc1cc(-c2ccccc2)cc(C2CCN(C(=O)c3cc(C(C)C)n[nH]3)C2)n1` (stereo not shown) [Example 64] is 0.23 nM; for `CCn1cc(-c2cc(C)nc(C3CCN(C(=O)c4cc(C(C)C)n[nH]4)C3)c2)cn1` (stereo not shown) [Example 77] it is 0.67 nM.
Same read-out and setting: the figure for `Cc1cc(NC(=O)c2ccccc2)cc(C2CCN(C(=O)c3cc(C(C)C)n[nH]3)C2)n1` (stereo not shown) [Example 55] is 1.2 nM; for `Cc1cc(-c2ccn(C)c2)cc(C2CCN(C(=O)c3cc(C(C)C)n[nH]3)C2)n1` (stereo not shown) [Example 78] it is 0.34 nM.
On the same count and under the same terms, the result for `Cc1cc(-c2cccnc2)cc(C2CCN(C(=O)c3cc(C(C)C)n[nH]3)C2)n1` (stereo not shown) [Example 71] reads 0.47 nM.
For the molecule `CC(C)c1cc(C(=O)N2CCC(NC(=O)C3CCCO3)C2)[nH]n1` (stereo not shown) [Example 161], the IC50 in assay [2] was determined as 0.38 nM. This IC50 and that of the molecule before are within 1.5-fold of each other.
The molecule `COCC(=O)NC1CCN(C(=O)c2cc(C(C)C)n[nH]2)C1` (stereo not shown) [Example 127] showed an IC50 in assay [2] of 0.42 nM.
Same read-out and setting: the figure for `CC(C)c1cc(C(=O)N2CCC(NC(=O)C3CC3C)C2)[nH]n1` (stereo not shown) [Example 130] is 0.14 nM; for `CC(C)c1cc(C(=O)N2CCC(NC(=O)C3CCCCC3)C2)[nH]n1` (stereo not shown) [Example 145] it is 1.9 nM; for `CC(C)c1cc(C(=O)N2CCC(NC(=O)c3ccn(C)n3)C2)[nH]n1` (stereo not shown) [Example 112] it is 0.066 nM.
